# In patent US20250049090A1, “A NUTRITIONAL SUPPLEMENT FOR IMPROVED GUT HEALTH” (Haleon US Holdings LLC, priority 2021, published 2025):
# Key:
# [1] = ZnC supplementation 150 mg/day for 1 week; cited from earlier work
# human gut microbiota = assay: In vitro gut model batch culture fermentation, organic acid production by gas chromatography; type: cell-based; conditions: 'except' = not significantly elevated
# Protocol: (§1) In vitro gut model batch culture fermentations were run for 72 hours. Samples were collected for bacterial enumeration and organic acid production through fluorescent in situ hybridisation combined with flow cytometry and gas chromatography, respectively. Overall, the main findings were that the ZnC supplementation combined with WD increased in Bifidobacterium spp., and Clostridium histolyticum group but this finding was not shown in the vessels consisting of the ZnC components only. […] Optimising the dose and substrate availability is important to ensure homeostasis and prevent potential pathogenic bacterial growth. […]
# (§2) A 750 μl sample was collected from each vessel at timepoints 0, 8, 24, 48 and 72 hours. […] The subsequent pellet was used for bacterial enumeration through fluorescence in situ hybridisation flow-cytometry (FISH-FCM) and 500 μl of supernatant used to assess organic acid production via gas chromatography. […]
# (§3) All statistical results were analysed in Prism 8 version 8.4.0 (GraphPad Prism 8, San Diego, California, USA). The FISH-FCM and organic acid production were analysed using two-way mixed ANOVA to compare different test substrates and time points. […]
# total bacteria = assay: In vitro gut model batch culture fermentation, FISH-FCM enumeration of total bacteria (Eub); type: cell-based, human faecal bacteria; conditions: until 48 h, WD experiment; 'except' = not elevated
# Protocol: as §1, §2, §3
# [2] = healthy volunteers under high stress or when diarrhoea was induced; cited from earlier work
substance,measurement,setting,value
Zinc carnosine [ZnC],UC clinical outcomes and remission,[1],improve
same,propionate compared to baseline,"human gut microbiota; 24, 48 and 72 h, WD experiment",except
same,acetate compared to baseline,"human gut microbiota; 72 h, PHGG experiment",except
same,total bacteria counts elevated,total bacteria,except
same,intestinal barrier function,[2],maintained or improved
